Assay results reported in patent publication US9938276B2, “6,5-bicyclic octahydropyrrolopyridine orexin receptor antagonists” (Merck Sharp & Dohme Corp., priority 2014, dated 2018).

What was measured:
hOX1R = hOX1R (Homo sapiens, UniProt O43613); experiment: hOX1R FLIPR Ca2+ flux assay; assay type: cell-based; settings: CHO cells expressing the receptor; agonist 70 pM Ala-6,12 human orexin-A
human orexin-2 receptor = human orexin-2 receptor (Homo sapiens (Human), UniProt O43614); experiment: hOX2R FLIPR Ca2+ flux assay; assay type: cell-based; settings: CHO cells expressing the receptor; agonist 70 pM Ala-6,12 human orexin-A
Procedure, shortened: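 FLIPR Ca2+ flux, CHO cells, rat OX1R / human OX2R; 5 min cpd preinc, then 70 pM Ala-6,12 hOrexin-A final; buffer pH 7.4 w/ 2.5 mM probenecid; peak vs agonist-alone.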

human orexin-2 receptor, sequence (O43614 whole entry): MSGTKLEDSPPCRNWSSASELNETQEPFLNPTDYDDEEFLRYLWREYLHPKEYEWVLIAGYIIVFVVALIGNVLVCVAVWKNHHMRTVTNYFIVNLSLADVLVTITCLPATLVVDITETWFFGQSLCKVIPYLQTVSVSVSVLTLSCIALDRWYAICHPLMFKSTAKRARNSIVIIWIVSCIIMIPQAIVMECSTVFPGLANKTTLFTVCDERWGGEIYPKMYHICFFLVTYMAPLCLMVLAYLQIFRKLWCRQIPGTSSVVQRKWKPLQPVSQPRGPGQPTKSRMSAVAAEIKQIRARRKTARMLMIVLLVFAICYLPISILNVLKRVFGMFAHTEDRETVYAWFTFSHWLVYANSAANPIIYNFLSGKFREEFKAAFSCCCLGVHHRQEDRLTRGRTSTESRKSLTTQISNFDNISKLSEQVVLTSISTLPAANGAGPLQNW

SMILES: CCOC(=O)[C@@H]1C[C@H]2CCN(c3cc(C#N)ccn3)[C@H]2CN1C(=O)c1ccccc1-n1nccn1 [Example G2, (3aR,5S,7aR)-ethyl 6-(2-(2H-1,2,3-triazol-2-yl)benzoyl)-1-(4-cyanopyridin-2-yl)octahydro-1H-pyrrolo[2,3-c]pyridine-5-carboxylate]
- IC50 (hOX1R): ≥ 10 µM
- IC50 (human orexin-2 receptor): 0.198 µM

SMILES: Cc1cc(C#N)nc(N2CC[C@@H]3CCN(C(=O)c4ccccc4-n4nccn4)C[C@@H]32)n1 [Example A4, 2-((3aR, 7aR)-6-(2-(2H-1,2,3-triazol-2-yl)benzoyl)octahydro-1H-pyrrolo[2,3-c]pyridin-1-yl)-6-methylpyrimidine-4-carbonitrile]
- IC50 (hOX1R): 10 µM
- IC50 (human orexin-2 receptor): 10 µM
